Test results as given in US9951061B2, “CaMKII inhibitors and uses thereof” (Allosteros Therapeutics, Inc., priority 2013, dated 2018).

Biological target: T1, CaMKIIδ (Homo sapiens, UniProt Q13557)
T1 construct: His/Gln tag (C)
Assay: In vitro CaMKIIδ activity (inhibition) assay, coupled assay measuring ADP released
Format: biochemical
Conditions: full length C-terminal His/Gln tagged CaMKIIδ construct, 16 nM; peptide substrate AC3; 25° C.
Procedure: An exemplary procedure for the in vitro CaMKIIδ inhibition assay, which can be used to determine the inhibitory action of compounds of the invention toward CaMKII, follows. The procedure is taken from Chao L H, et al., (2010) Nat Struct Mol Biol. 17(3): 264-272, which is incorporated herein by reference in its entirety.
The inhibition of CaMKII activity was evaluated using a coupled assay measuring ADP released following ATP hydrolysis and phosphor-transfer to the peptide substrate AC3 (KKALHRQETVDAL; SEQ ID NO: 1) (1). A full length, C-terminal His/Gln tagged CaMKIIδ construct was used (sequence in Table 2 below).
Compounds were added in 5 uL volume to wells in UV transparent 96-well plates (½ area well size). The final compound concentrations tested ranged from 0.5 nM to 10 uM). Assays were performed in duplicate. CaMKIIδ is added to at a final concentration of 16 nM to a mixture containing 100 mM Tris (pH 7.5), 150 mM KCl, 0.27 mM EGTA, 1.3 mM PEP, 0.2 mg/ml AC3, 6.9% (v/v) PK/LDH mixture (Sigma P0294), 0.38 mM NADH and kept on ice. 72 uL of the enzyme mixture was added to the wells containing compounds and the plate was shaken briefly and kept on ice. The assay was initiated by adding 23 uL of a mixture containing 100 mM Tris (pH 7.5), 150 mM KCl, 1.7 mM CaCl2, 48 mM MgCl2, 0.35 mM ATP and 6.7 ug/mL calmodulin. The rate of ADP released was measured as the rate of absorbance decrease at […] at 25° C. and plotted against the log of the compound concentration (FIG. 1). IC50 data were fitted using GraphPad Prism software.

T1 sequence (Q13557 whole entry, looked up): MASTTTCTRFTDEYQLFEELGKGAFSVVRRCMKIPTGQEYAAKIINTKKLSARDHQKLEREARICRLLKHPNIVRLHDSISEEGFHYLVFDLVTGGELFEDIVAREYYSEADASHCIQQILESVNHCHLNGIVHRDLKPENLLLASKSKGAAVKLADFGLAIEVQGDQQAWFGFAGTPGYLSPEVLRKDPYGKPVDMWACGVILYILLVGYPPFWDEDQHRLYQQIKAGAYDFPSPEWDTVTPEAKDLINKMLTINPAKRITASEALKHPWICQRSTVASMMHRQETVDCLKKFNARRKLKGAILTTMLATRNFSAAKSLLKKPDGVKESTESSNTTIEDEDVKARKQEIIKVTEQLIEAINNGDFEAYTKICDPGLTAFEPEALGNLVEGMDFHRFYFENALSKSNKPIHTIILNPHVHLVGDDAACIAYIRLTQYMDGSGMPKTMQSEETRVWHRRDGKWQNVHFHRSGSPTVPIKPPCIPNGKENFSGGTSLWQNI

| Structure (SMILES) | IC50 [nM] |
| --- | --- |
| c1cc(-c2ccnc3[nH]c4ccccc4c23)cc(N2CCNCC2)c1 [Compound I-1, 4-(3-(piperazin-1-yl)phenyl)-9H-pyrido[2,3-b]indole] | 50 to 250 |
| c1cc(-c2ccnc3[nH]c4ccccc4c23)cc(-n2ccnc2)c1 [Compound I-2, 4-(3-(1H-imidazol-1-yl)phenyl)-9H-pyrido[2,3-b]indole] | ≥ 1000 |
| NCc1cccc(-c2ccnc3[nH]c4ccccc4c23)c1 [Compound I-3, (3-(9H-pyrido[2,3-b]indol-4-yl)phenyl)methanamine] | ≥ 1000 |
| N=C(N)Nc1cccc(-c2ccnc3[nH]c4ccccc4c23)c1 [Compound I-4, 1-(3-(9H-pyrido[2,3-b]indol-4-yl)phenyl)guanidine] | 50 to 250 |
| N=C(N)NCc1cccc(-c2ccnc3[nH]c4ccccc4c23)c1 [Compound I-5, 1-(3-(9H-pyrido[2,3-b]indol-4-yl)benzyl)guanidine] | 250 to 1000 |
| Nc1cccc(-c2ccnc3[nH]c4ccccc4c23)c1 [Compound I-6, 3-(9H-pyrido[2,3-b]indol-4-yl)aniline] | 50 to 250 |
| COc1ccc2c(c1)[nH]c1nccc(-c3cccc(NCCN)c3)c12 [Compound I-12, N1-(3-(7-methoxy-9H-pyrido[2,3-b]indol-4-yl)phenyl)ethane-1,2-diamine] | ≤ 50 |
| Cc1ccc2[nH]c3nccc(-c4cccc(NCCN)c4)c3c2c1 [Compound I-13, N1-(3-(6-methyl-9H-pyrido[2,3-b]indol-4-yl)phenyl)ethane-1,2-diamine] | ≤ 50 |
| NCCNc1cccc(-c2ccnc3[nH]c4ccc(Cl)cc4c23)c1 [Compound I-14, N1-(3-(6-chloro-9H-pyrido[2,3-b]indol-4-yl)phenyl)ethane-1,2-diamine] | ≤ 50 |

Now from value to molecule:

| IC50 [nM] | Structure (SMILES) |
| --- | --- |
| ≤ 50 | NCCNc1cccc(-c2ccnc3[nH]c4ccccc4c23)c1 [Compound I-7, N1-(3-(9H-pyrido[2,3-b]indol-4-yl)phenyl)ethane-1,2-diamine] |
| ≤ 50 | NCCCNc1cccc(-c2ccnc3[nH]c4ccccc4c23)c1 [Compound I-8, N1-(3-(9H-pyrido[2,3-b]indol-4-yl)phenyl)propane-1,3-diamine] |
| ≤ 50 | NCCOc1cccc(-c2ccnc3[nH]c4ccccc4c23)c1 [Compound I-9, 2-(3-(9H-pyrido[2,3-b]indol-4-yl)phenoxy)ethanamine] |
| ≤ 50 | NCCCOc1cccc(-c2ccnc3[nH]c4ccccc4c23)c1 [Compound I-10, 3-(3-(9H-pyrido[2,3-b]indol-4-yl)phenoxy)propan-1-amine] |
| ≤ 50 | Cc1ccc2c(c1)[nH]c1nccc(-c3cccc(NCCN)c3)c12 [Compound I-11] |
